Experiments:
[1] = system: anaesthetised, hyperventilated Domperidone-treated lamb; experiment: Periodic breathing induced by transient hyperventilation in the anaesthetised Domperidone-treated lamb (model of elevated loop gain); type: in vivo; conditions: for effect on average value of loop gain across the epoch / effect on epoch duration / effect on number of cycles in epochs of periodic breathing following hyperventilation / number of cycles of ventilation and apnea in the epoch of periodic breathing / duration of the epoch of periodic breathing / average value of loop gain across the epoch of periodic breathing: 5 mg/kg i.v.; for effect on average value of loop gain across the epoch / effect on epoch duration / effect on number of cycles in epochs of periodic breathing following hyperventilation: before vs after drug, Retigabine lambs 1-3, Flupirtine lamb 4; for number of cycles of ventilation and apnea in the epoch of periodic breathing / duration of the epoch of periodic breathing / average value of loop gain across the epoch of periodic breathing: single lamb; for number of cycles of ventilation and apnea in the epoch of periodic breathing / duration of the epoch of periodic breathing: about 1 hour after drug; for number of cycles of ventilation and apnea in the epoch of periodic breathing: same lamb before drug: 30 (Retigabine lamb), 24 (Flupirtine lamb); for duration of the epoch of periodic breathing: same lamb before drug: 6 minutes (Retigabine lamb), 320 seconds (Flupirtine lamb); for average value of loop gain across the epoch of periodic breathing: duty ratio method, same lamb before drug: 1.71 (Retigabine lamb), 1.51 (Flupirtine lamb)
Excerpt: To determine the effects of the KCNQ channel openers Retigabine and Flupirtine on loop gain and periodic breathing in the anaesthetised, hyperventilated Domperidone-treated lamb.
This animal model provides a robust preparation to test the effects of candidate drugs for the treatment of disordered breathing associated with increased peripheral chemosensitivity and elevated loop gain.
Young lambs (Merino/Border-Leicester cross, 14-18 kg) were instrumented surgically and maintained through the experimental protocol according to the method described by Edwards et al. (2008). Briefly, a non-occlusive catheter was placed in the left jugular vein for the induction of anaesthesia using a loading dose of ketamine hydrochloride (5 mg/kg) followed by alpha-chloralose (80 mg/kg as a starting bolus, then as a continuous infusion at 20 mg/kg/hr. Supplemental doses of alpha-chloralose were administered as needed to maintain adequate anaesthesia. A glucose-saline solution was infused through the same catheter to maintain fluid levels (5% glucose in 0.9% saline at 4 ml/kg/hr). A tracheal tube was inserted and connected to a dual intermittent mechanical ventilator (IMV)/high frequency oscillatory ventilator (Humming2; BMO-20H) used in the IMV mode. Use of a 4-way Hans Rudolf valve enabled the lamb to be ventilated artificially or to breathe spontaneously from a circuit through which a flow of gas was maintained at 45 L/min, or from the room air. Measurements of respiratory flow, tidal volume and end-expired gases were made on the tracheal line. Respiratory flow was measured using a Hans Rudolph (3500A) pneumotachograph that was linear up to 35 l/min, in conjunction with a Gaeltec 8T-2 differential pressure transducer connected to a carrier amplifier (Hewlett Packard 8805B) and thence to an HP-8815A electronic integrator to determine tidal volume. Non-occlusive catheters were placed in the right jugular vein and a carotid artery for the intravenous administration of drugs, the sampling of venous and arterial blood gases and the monitoring of blood pressure. Arterial blood pressure was measured using a Micron MP-15 blood pressure transducer connected to a Hewlett-Packard 8805B carrier amplifier. A rectal probe was used to monitor body temperature, which was maintained within the range of 40.0±1.0° C. using an overhead radiant heater. Arterial oxygen saturation was measured continuously using a Nellcor pulse oximeter (Model N-200E) with the probe placed in the trans-mandibular position in such a way that the optical path included the soft tissues of the jaw but excluded the tongue.
Domperidone (0.5 mg/kg in 30 ml 0.1% lactic acid), Flupirtine (as Flupirtine maleate, 5 mg/kg in 30 ml distilled water) and Retigabine (5 mg/kg in 30 ml distilled water) were each administered over a period of 5 minutes via the jugular vein catheter.
Lambs breathed room air (atmospheric) throughout the experimental protocol. Domperidone was administered at the commencement of the experimental protocol. […] Epochs of periodic breathing were induced by switching the tracheal tube to the ventilator circuit and hyperventilating the lamb with air for at least 5 minutes to reduce end tidal CO2 to a level that produced apnea when the ventilator was switched off. […] Typically, an extended epoch of periodic breathing followed the post-hyperventilation apnea. Once the ventilation parameters for achieving a post-hyperventilation apnea as described above were established for a particular animal, the baseline ventilatory response to hyperventilation was determined by performing two standardised hyperventilation procedures 10-15 minutes apart. The test drug (Flupirtine or Retigabine) was then administered and, approximately 1 hour later, another two hyperventilation procedures were performed 10-15 minutes apart.
Minute ventilation was calculated breath-by-breath using the breath duration determined from the respiratory flow trace and the tidal volume signal from the integrator. […]

[2] = system: young lambs; conditions: cited from earlier work

Row | SMILES | epochs of periodic breathing on hyperventilation ([1]; Domperidone 0.5 mg/kg alone, 30 minutes or more after administration) | typical duration of epochs of periodic breathing ([1]; Domperidone 0.5 mg/kg alone, before test drug) [min] | duration of blocking effect ([2]; 0.5 mg/kg dose to a lamb, previous research (Kressin et al. 1986)) | effect on loop gain of the respiratory control system ([2]; young lambs, Edwards et al. (2008)) | effect on average value of loop gain across the epoch [1] | effect on epoch duration [1] | effect on number of cycles in epochs of periodic breathing following hyperventilation [1] | number of cycles of ventilation and apnea in the epoch of periodic breathing [1] [cycles] | duration of the epoch of periodic breathing [1] [s] | average value of loop gain across the epoch of periodic breathing [1]
1 | O=c1[nH]c2ccccc2n1CCCN1CCC(n2c(=O)[nH]c3cc(Cl)ccc32)CC1 [Domperidone] | reliably elicited epochs of periodic breathing | 2 to 5 | at least three hours | increases |  |  |  |  |  | 
2 | CCOC(=O)Nc1ccc(NCc2ccc(F)cc2)cc1N [Retigabine] |  |  |  |  | reduced | reduced | significantly reduced | 6 | 115 | 1.24
3 | CCOC(=O)Nc1ccc(NCc2ccc(F)cc2)nc1N [Flupirtine] |  |  |  |  | reduced | reduced | significantly reduced | 9 | 130 | 1.16

Source: patent publication US20210213001A1, “METHOD OF TREATING A SLEEP BREATHING DISORDER” (Monash University, priority 2018, published 2021)
